The values below come from US20260335323A1, “CHIMERIC MOLECULE” (UCL Business Ltd, priority 2023, published 2026).

Holding throughout (assay type): cell-based, human
One experiment relates to γH2AX. The experiment can be described thus: Western blot, γH2AX in RPE1-hTERT-cMYC-ER cells (replication stress). Conditions: 72 h; NZ-175 at 100 nM with 4-OHT. Here is the method:
(§1) FIG. 15. NZ-175 rescues oncogenic c-MYC induced replication stress (100 nM, 72 h) (A) Western blot of RPE1-hTERT-cMYC-ER treated with 4-OHT and/or NZ-175 at 100 nM for 72 hours. 4-OHT treatment simulates oncogenic c-MYC-induced replication stress, observed by upregulation of phospho-CHK1 (S345), pRPA (S4/S8) and γH2AX. […] Quantification of blot is shown for pCHK1 […] (B), pRPA (S4/S8) (C), and YH2AX (D). n=3, mean±SEM, *p<0.05, ** p<0.01, *** p<0.001.
(§2) Cells were homogenised in protein lysis buffer consisting of 0.1 M Tris pH 8.0, 0.1 M NaCl, 5% glycerol, IGEPAL® CA-630 (#18896. Sigma-Aldrich) and 5 mM EDTA, 0.1 M N-ethyl maleimide (ThermoFisher, #23030) and protease inhibitor (Cell Signalling Technologies, #5871). Protein concentrations were determined using the BCA assay to ensure equal loading. […] The membranes were immunoblotted with primary antibodies, overnight at 4° C. […]
(§3) Membranes were then incubated with horseradish peroxidase (HRP)-conjugated secondary antibodies (Rabbit #7074 and Mouse #7076) purchased from Cell Signalling Technologies for 1 hour and the HRP signal was detected using EZ-ECL Enhanced Chemiluminescence Detection Kit for HRP (#20-500-500, Sartorius), and imaged with an Alliance Q9 Advanced (UVITec). […]
(§4) To see if NZ-175 could rescue this phenotype, RPE1-hTERT-cMYC-ER cells treated with 4-OHT and/or 100 nM NZ-175 for 72 h were analysed by Western blotting (FIG. 15A). […]
(In general: Immunoblotting shows a protein as a band on a membrane.)

For a further experiment, the system named is phospho-CHK1 (S345). Briefly: Western blot, phospho-CHK1 in RPE1-hTERT-cMYC-ER cells (replication stress). To be noted: 72 h; NZ-175 at 100 nM with 4-OHT. Here is the method:
as §1, §2, §3, §4

A further experiment has as its system pRPA (S4/S8). The experiment can be described thus: Western blot, pRPA (S4/S8) in RPE1-hTERT-cMYC-ER cells (replication stress). Conditions: 72 h; NZ-175 at 100 nM with 4-OHT. Here is the method: as §1, §2, §3, §4
The test system of experiment [1] is H1299 cells. Briefly: Cell viability assay (CellTiter Glo), H1299. To be noted: H1299, increasing concentrations. The method, then: (§5) A549 and H1299 cells were seeded in OptiPlate-384 well plates and treated with increasing concentrations of (+)-JQ1 or NZ-147 from 0 μM to 10 µM in Example 8 and with increasing concentrations of NZ-175 from 0 µM to 10 µM in Example 9. Cells were treated for 120 h before using the luciferase based CellTiter Glo assay (Promega) to measure cell viability.
(§6) Cell viability assay was performed in A549 and H1299 cells, which were treated with different concentrations of (+)-JQ1 or NZ-147 at 100 nM for 72 hours (FIG. 10B).
(§7) Cell viability assay was performed in A549 and H1299 cells, which were treated with different concentrations of NZ-147 at 100 nM for 72 hours (FIG. 16B).
In general terms: Cellular ATP, detected with luciferase, serves as a proxy for viable cell number.

The next experiment relates to c-MYC controlled genes. Briefly: RT-qPCR of c-MYC controlled genes in CAL51 cells. Conditions: 100 nM, 72 hours. The method, then: FIG. 11. RT-qPCR quantification of expression of c-MYC controlled genes in CAL51 triple negative breast cancer cell line treated with DMSO, 100 nM (+)-JQ1 or 100 nM NZ-147 for 72 hours. […] MDM2 (A) and CCNE (B) are controlled by cMYC in oncogenic settings, PAICS (C) is a putative target of c-MYC, and eIF4E (D) is a known target of cMYC. n=3, *p<0.05, ** p<0.01, *** p<0.001.
RNA was extracted with the Qiagen RNeasy Mini kit following manufacturers protocol. RT-qPCR SYBR assay was carried out with Mesa Blue following manufacturers instructions, 80 ng RNA per well, experimental triplicates, BioRad CTX Connect qPCR machine. RNA levels were normalized to GAPDH. Experiments were done in biological triplicate. The primers used were as follows:
The levels of c-MYC controlled genes (determined using RT-qPCR) in CAL51 triple negative breast cancer cell line after treatment with DMSO, 100 nM (+)-JQ1 or 100 nM NZ-147 for 72 hours is shown in FIG. 11. In particular MDM2 (FIG. 11A) and CCNE (FIG. 11B) are controlled by cMYC in oncogenic settings, PAICS (FIG. 11C) is a putative target of c-MYC, and elF4E (FIG. 11D) is a known target of c-MYC.
For orientation: Real-time PCR tracks product formation cycle by cycle.

The test system of experiment [2] is A549 cells. Briefly: Cell viability assay (CellTiter Glo), A549. Conditions: A549, increasing concentrations. The method, then: as §5, §6, §7
The test system of experiment [3] is p-Ub (S65). The experiment can be described thus: Western blot, p-Ub (S65) in PINK-null PD patient fibroblasts. Here is the method:
(§8) FIG. 7. ULKTACs restore mitophagic activity in PINK-null PD patient fibroblasts (A) Western blot of patient derived fibroblasts, healthy control vs. PINK null, treated with […] NZ-65 or NZ-66 for 18 h or 10 μM FCCP for 2 h and probed for total Ub, pUb(S65), Mfn2 and b-Actin with quantification for the changes in the pUB (S65): Total Ub ratio shown in (B) and Mfn2 (C), respectively normalised to b-Actin. (D) Representative immunofluorescence of primary human fibroblasts isolated from wild type controls and PINK-null Parkinson's disease patients, treated with 10 µM FCCP, 1 μM NZ-65 or 1 μM NZ-66 and immunostained for TOM20 and ULK1; counterstained with Alexa 488 and Alexa 568 antibodies. Nuclei stained with Hoechst 33342. The quantification of these immunofluorescence experiments is shown in (E). Data shown are mean±SEM, n=3, *** p<0.001, two-way ANOVA with Tukey's multiple comparisons test.
as §2

Experiment [4] concerns p-Ub (S65). Briefly: Western blot, p-Ub (S65) in WT fibroblasts. To be noted: 10 μM FCCP, 2 h. The method, then:
as §8, §2

Experiment [5] relates to H1299 cells. Briefly: Colony formation assay, H1299. To be noted: H1299, 100 nM, 72 hours. The method, then:
(§9) A549 and H1299 cells were seeded in 12 well plates at approximately 100 cells per well. In Example 8, wells were treated with DMSO, (+)-JQ1 or NZ-147. In Example 9, cells were treated with DMSO or NZ-175. Colonies were allowed to form over 120 h. Cells were fixed and stained with crystal violet staining solution, prepared in 70% ethanol.
(§10) A colony formation assay was performed in A549 and H1299 cells, which were treated with DMSO, (+)-JQ1 or NZ-147 at 100 nM for 72 hours and stained with crystal violet (FIG. 10A).
(§11) A colony formation assay was performed in A549 and H1299 cells, which were treated with DMSO or NZ-175 at 100 nM for 72 hours and stained with crystal violet (FIG. 16A).

Experiment [6] relates to c-MYC. Briefly: c-MYC immunofluorescence in hTERT-cMYC-ER expressing RPE1 cells. Conditions: 100 nM, 72 hours, 4-OHT and/or compound. The method, then:
FIG. 9. (A) Schematic representation of hTERT-cMYC-ER expressing RPE1 cells. Treatment with 4-hydroxytamoxifen (4-OHT) translocates c-MYC-ER from the cytoplasm into the nucleus, simulating oncogenic c-MYC. (B) Immunofluorescence images of hTERT-cMYC-ER expressing RPE1 cells treated with DMSO, (+)-JQ1 or NZ-147 at 100 nM for 72 hours, each with or without 4-OHT.
RPE1-hTERT-c-MYC-ER cells were seeded in a 384 well PerkinElmer CellCarrier Ultra plate. In Example 8, cells were treated for 72 hours with DMSO, (+)-JQ1±4-OHT, or, NZ-147±4-OHT. In Example 9, cells were treated for 72 hours with 4-OHT, NZ-175, both, or neither. Thereafter, in both Examples 8 and 9, cells were fixed with 4% paraformaldehyde (PFA) in phosphate buffered saline (PBS) and blocked with 10% FBS and 0.1% Triton in PBS. Plates were incubated at 4° C. overnight, with 1:500 rabbit anti-c-MYC (D84C12) rabbit monoclonal antibody (#5605, Cell Signalling Technologies). The following day, plates were incubated with 1:1000 goat anti-rabbit Alexa 488 (ThermoFisher Scientific, #A-11008) and 1.62 μM Hoechst 33342 at room temperature for 1 hour before imaging. Excitation and emission spectra for each channel are as follows: Hoechst 33342=405/435-480 nm, Alexa 488=488/500-550 nm. Images were acquired at 40× and 63× magnification with water immersion lens.

Another experiment concerns MAX. The experiment can be described thus: Western blot, MAX in RPE1-hTERT-cMYC-ER cells. To be noted: 100 nM, 72 h, 4-OHT and/or compound. The method, then:
(§12) FIG. 12. c-MYC and MAX degradation enabled by NZ-175. (A) Schematic representation of hTERT-cMYC-ER expressing RPE1 cells. Treatment with 4-hydroxytamoxifen (4-OHT) translocates c-MYC-ER from the cytoplasm into the nucleus, simulating oncogenic c-MYC. (B) Western blot of RPE1-hTERT-cMYC-ER treated with 4-OHT and/or 100 nM NZ-175 for 72 hours. Quantification of c-MYC-ER (C), c-MYC (D) and MAX (E).
as §2, §3
(§13) RPE1-hTERT-cMYC-ER cells were treated with 4-OHT and/or 100 nM NZ-175 for 72 h and analysed by Western blotting (FIG. 12A). The levels of c-MYC-ER (FIG. 12B), c-MYC (FIG. 12C) and MAX (FIG. 12D) were quantified.

For experiment [7], the system named is A549 cells. The experiment can be described thus: Colony formation assay, A549. Conditions: A549, 100 nM, 72 hours. The method, then: as §9, §10, §11
Experiment [8] deals with c-MYC. The experiment can be described thus: Western blot, c-MYC in RPE1-hTERT-cMYC-ER cells. To be noted: 100 nM, 72 h, 4-OHT and/or compound. Here is the method:
as §12, §2, §3, §13

As to “4-hydroxytamoxifen [4-OHT, reference compound]”, the “γH2AX, replication stress” value in the experiment on γH2AX is listed as “upregulation”. Moreover, the “phospho-CHK1 (S345), replication stress” value with phospho-CHK1 (S345) is reported as “upregulation”. The “pRPA (S4/S8), replication stress” value in the experiment on pRPA (S4/S8) is on record as “upregulation”.

In the case of `Cc1sc2c(c1C)C(c1ccc(Cl)cc1)=N[C@@H](CC(=O)OC(C)(C)C)c1nnc(C)n1-2` [(+)-JQ1, reference compound], the “percentage of live cells” value in the experiment on H1299 cells [1] and with A549 cells [2] was “dose-dependent decrease in the percentage of live cells” each time. The “expression of c-MYC controlled genes (MDM2, CCNE, PAICS, eIF4E)” value in the experiment on c-MYC controlled genes is on record as “reduces the expression of c-MYC controlled genes”.

`N#CC(C#N)=NNc1ccc(OC(F)(F)F)cc1` [FCCP]: the entries for the “p-Ub (S65) levels” value in the experiment on p-Ub (S65) [3] and in the experiment with p-Ub (S65) [4] were “does not occur in the PINK-null cells” and “substantial increase in p-Ub (S65) levels”, respectively.

`C/C=C/C(=O)NCc1ccc(C(=O)Nc2ccccc2Oc2ccc(OCC(=O)NCCOCCOCCOCCn3cc(COc4ccc([C@@H](NC(=O)Nc5cc(C(F)(F)F)cc(C(F)(F)F)c5)C(=O)Nc5ccc(F)cc5F)cc4)nn3)cc2)cc1` [NZ-175, (R)-4-(crotonylamidomethyl)-N-(2-(4-((14-(4-((4-(1-(3-(3,5-bis(trifluoromethyl)phenyl)ureido)-2-((2,4-difluorophenyl)amino)-2-oxoethyl)phenoxy)methyl)-1H-1,2,3-triazol-1-yl)-2-oxo-6,9,12-trioxa-3-azatetradecyl)oxy)phenoxy)phenyl) benzamide]: the colony formation entry in the experiment with H1299 cells [5] and in the experiment with A549 cells [7] was “Fewer colonies formed” in each case. Moreover, the “γH2AX, replication stress” value in the experiment with γH2AX was “rescues this phenotype”. Moreover, the “phospho-CHK1 (S345), replication stress” value in the experiment on phospho-CHK1 (S345) was “rescues this phenotype”. In addition, in the experiment with c-MYC [6], the “c-MYC degradation (time-course immunofluorescence)” value was “c-MYC degradation”. Further, the “degradation of MAX” value in the experiment on MAX is recorded as “proximal degradation of MAX”. Moreover, in the experiment with c-MYC [8], the “degradation of c-MYC” value is on record as “initiates degradation of c-MYC”. For the same compound, the “pRPA (S4/S8), replication stress” value with pRPA (S4/S8) is recorded as “rescues this phenotype”.
